{
  "source": "patent US11072632B2",
  "about": "“Inhibitors of 17β-HSD1, 17β-HSD3 and 17β-HSD10” (UNIVERSITÉ LAVAL, priority 2011, dated 2021)",
  "key": {"T-47D cells": {"test_system": "T-47D cells", "experiment": "Inhibition of E1-stimulated T-47D cell proliferation", "type": "cell-based, human", "conditions": "E1 0.1 nM, no inhibitor; control 100%", "description": "Quantification of cell growth was determined by using CellTiter 96®Aqueous Solution Cell Proliferation Assay (Promega, Nepean, ON, Canada) following the manufacturer's instructions. T-47D cells were resuspended with the medium supplemented with insulin (50 ng/mL) and 5% dextran-coated charcoal treated FBS rather than 10% FBS to remove remaining hormones. Aliquots (100 μL) of the cell suspension were seeded in 96-well plates (3000 cells/well). After 48 h, the medium was changed with a new one containing an appropriate concentration of products to be tested and was replaced every 2 days. Cells have grown either in absence or presence of the compounds for 7 days. To determine the proliferative (estrogenic) activity, the estrogen-sensitive T-47D cells were grown in absence (basal cell proliferation was fixed as 100%) or presence of compounds to be tested at 0.5 to 10 μM. The potent estrogen E2 was used as a reference control. […] The cell proliferation without E1±inhibitor (control) was fixed as 100%. To determine the potential antiestrogenic activity of inhibitor Compound V, the T-47D (ER^+) cells were grown in the presence of estrogen E2 (0.1 nM) and pure antiestrogen EM-139 (0.5 μM) or inhibitor Compound V (0.5 μM). The cell proliferation without E2 and tested compounds (control) were fixed as 100%."}, "[1]": {"test_system": "ovariectomized (OVX) BALB/c mice", "experiment": "In vivo estrogenicity assay in OVX mice (uterus, vagina weight)", "design": "species or system mouse", "conditions": "OVX mice, s.c., 0.02 μg/mouse/day", "description": "Female ovariectomized (OVX) BALB/c mice weighing approximately 20 g were obtained from Charles-River, Inc. (St-Constant, Qc., Canada). The animals were housed 5 per cage. Groups of 5 mice were treated with E1 (0.02 μg in 8% EtOH/92% PG) or 17β-HSD1 inhibitor at 10, 50 and 250 μg (0.1 mL s.c.) daily for 7 days. Animals were killed 24 h after administration of the last dose of compound and uteri and vagina were removed, excised of fat and weighed. Total body weights of mice were also recorded."}, "T-47D tumors": {"test_system": "T-47D tumors", "experiment": "Inhibition of E1-stimulated T-47D tumor growth in nude OVX mice (xenograft)", "type": "in vivo, mouse", "description": "Female OVX BALB/c athymic nude mice weighing approximately 20 g were obtained from Charles-River, Inc. (St-Constant, Qc., Canada). The animals were housed 5 per cage. […] T-47D tumor growth was stimulated using 0.1 μg of E1 s.c. per mouse per day for 15 days. From day 16, animals with tumors were randomized in function of tumor volume and separated into three groups. Group 1 (control mice) was treated s.c. with 100 μL of vehicle alone (8% EtOH/92% PG) per mouse per day. Group 2 (E1 0.1 μg) was treated with E1 (0.1 μg/day, s.c. per mouse) during 32 days. Group 3 (E1 0.1 μg+Compound V 250 μg) was treated with E1 (0.1 μg/day) and Compound V (250 μg/day) per mouse in a combined s.c. injection for 32 days. The mice were weighed at start and volumes of tumors were determined by external caliper twice a week and the greatest longitudinal diameter (length) and the greatest transverse diameter (width) were determined. Tumor volume based on caliper measurements was calculated by the modified ellipsoidal formula: Tumor volume=½(length×width^2) (Jensen M M, Jorgensen J T, Binderup T, Kjaer A. Tumor volume in subcutaneous mouse xenografts measured by microCT is more accurate and reproducible than determined by 18F-FDG-microPET or external caliper. BMC Med Imaging 2008; 8:16). At the end of the studies the mice were terminally anaesthetized, final body weights and tumor sizes were determined. Uteri and vagina were removed, excised of fat and weighed (Day J M, Foster P A, Tutill H J, Parsons M F, Newman S P, Chander S K, et al. 17beta-hydroxysteroid dehydrogenase type 1, and not type 12, is a target for endocrine therapy of hormone-dependent breast cancer. Int J Cancer 2008; 122:1931-40; Husen B, Huhtinen K, Poutanen M, Kangas L, Messinger J, Thole H. Evaluation of inhibitors for 17beta-hydroxysteroid dehydrogenase type 1 in vivo in immunodeficient mice inoculated with MCF-7 cells stably expressing the recombinant human enzyme. Mol Cell Endocrinol 2006; 248:109-13; Husen B, Huhtinen K, Saloniemi T, Messinger J, Thole H H, Poutanen M: Human hydroxysteroid (17-beta) dehydrogenase 1 expression enhances estrogen sensitivity of MCF-7 breast cancer cell xenografts. Endocrinology 2006; 147:5333-9; Messinger J, Hirvela L, Husen B, Kangas L, Koskimies P, Pentikainen O, et al. New inhibitors of 17beta-hydroxysteroid dehydrogenase type 1. Mol Cell Endocrinol 2006; 248:192-8)."}, "[2]": {"test_system": "ovariectomized (OVX) mice", "experiment": "In vivo estrogenic activity (uterotrophic assay) in OVX mice", "design": "species or system mouse", "conditions": "OVX mice, s.c. BID, 7 days", "description": "The mice were fed rodent chow and tap water ad libitum. The animals were ovariectomized (OVX) under isoflurane-anaesthesia via bilateral flank incisions and randomly assigned to groups (5 animals by group). Mice in the OVX control group received the vehicle alone (8% ethanol-0.4% methylcellulose) during the 7-day period. The possible estrogenic activity of tested compounds was evaluated after their administration by subcutaneous (s.c.) injection [1, 10 and 100 μg/kg, s.c., twice daily (BID)] as suspension in 8% ethanol-0.4% methylcellulose to OVX female mice for 7 days. On day 8, the mice were sacrificed by cervical dislocation. The uteri and vagina were rapidly removed, freed from fat and connective tissue and weighed. Results are the means±SEM of 5 mice per group."}, "17β-HSD10 [3]": {"biological_target": "T1, 17β-HSD10 (Homo sapiens, UniProt Q99714)", "T1 construct": "expressed in transfected cells", "T1 sequence (Q99714 1-261)": "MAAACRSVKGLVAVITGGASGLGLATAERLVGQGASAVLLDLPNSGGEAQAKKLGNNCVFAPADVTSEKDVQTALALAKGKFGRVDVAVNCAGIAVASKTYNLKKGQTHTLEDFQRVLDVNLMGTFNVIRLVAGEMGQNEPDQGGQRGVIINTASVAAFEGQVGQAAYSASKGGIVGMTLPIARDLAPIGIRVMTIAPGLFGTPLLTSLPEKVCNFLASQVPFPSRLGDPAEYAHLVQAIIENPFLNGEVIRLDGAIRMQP", "experiment": "Inhibition of 17β-HSD10 in stably transfected HEK-293 whole cells (E2 into E1)", "type": "cell-based"}, "17β-HSD10 [4]": {"biological_target": "T1, 17β-HSD10", "conditions": "read-out: Km of the enzyme for E2 as a substrate; cited from earlier work"}, "17β-HSD3 [5]": {"biological_target": "T2, 17β-HSD3 (Homo sapiens, UniProt P37058)", "T2 construct": "expressed in transfected cells; host or cells: HEK-293 (homogenate)", "T2 sequence (P37058 1-310)": "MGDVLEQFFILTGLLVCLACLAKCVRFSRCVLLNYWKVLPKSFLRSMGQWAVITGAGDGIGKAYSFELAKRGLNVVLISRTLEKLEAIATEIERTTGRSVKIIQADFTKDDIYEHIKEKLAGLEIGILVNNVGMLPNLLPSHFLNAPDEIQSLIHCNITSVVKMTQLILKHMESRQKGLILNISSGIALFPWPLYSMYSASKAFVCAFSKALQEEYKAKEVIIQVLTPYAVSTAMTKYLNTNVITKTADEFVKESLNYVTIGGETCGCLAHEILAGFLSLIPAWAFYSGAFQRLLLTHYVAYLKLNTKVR", "experiment": "Inhibition of 17β-HSD3 in homogenated HEK-293 cells", "type": "biochemical"}, "17β-HSD3 [6]": {"biological_target": "T2, 17β-HSD3", "experiment": "Inhibition of 17β-HSD3 in intact HEK-293 cells", "type": "cell-based"}, "[7]": {"test_system": "androgen-sensitive (AR+) Shionogi cells", "experiment": "Proliferative (androgenic) activity on androgen-sensitive Shionogi cells", "type": "cell-based", "conditions": "for cell proliferation, % of basal: basal (control) 100%", "description": "The proliferative (androgenic) activity was determined using androgen-sensitive Shionogi cells following a known literature procedure.^54 Inhibitors and reference compounds were tested at two concentrations (0.1 and 1.0 μM). The androgenicity was reported as % cell proliferation (versus the control). The basal cell proliferation (control) was fixed at 100%."}},
  "note": "“And” between values parts separate entries of the source, which are not always exact repeats. Identical values can stand only once.",
  "data": [
    {"compound": "C[C@]12CC[C@@H]3c4ccc(O)cc4CC[C@H]3[C@@H]1CCC2=O", "note": "[Compound E1, estrone, reference compound]", "values": [
      {"measurement": "cell growth induced by E1 alone", "setting": "T-47D cells", "value": 250, "unit": "%"},
      {"measurement": "increase in uterine weight compared to OVX-CTR (times)", "setting": "[1]", "value": 2.5},
      {"measurement": "uterine weight", "setting": "[1]", "value": 55, "unit": "mg"},
      {"measurement": "tumor size, % of initial size", "setting": "T-47D tumors; E1 0.1 μg/day s.c. alone, 32 days", "value": 136, "unit": "%"},
      {"measurement": "effect on mouse weight", "setting": "T-47D tumors; mouse, in vivo", "value": "no effect"}
    ]},
    {"compound": "C[C@]12CC[C@@H]3c4ccc(O)cc4CC[C@H]3[C@@H]1CC[C@@H]2O", "note": "[17β-E2 (1), 17β-estradiol]", "values": [
      {"measurement": "uterine weight", "setting": "[2]; 1 μg/kg", "value": 125, "unit": "mg"},
      {"measurement": "uterine weight", "setting": "[2]; 10 μg/kg", "value": 155, "unit": "mg"},
      {"measurement": "uterine weight", "setting": "[2]; 100 μg/kg", "value": 160, "unit": "mg"},
      {"measurement": "IC50", "setting": "17β-HSD10 [3]", "value": "> 10000", "unit": "nM"},
      {"measurement": "Km", "setting": "17β-HSD10 [4]", "value": 43, "unit": "µM"}
    ]},
    {"compound": "CCN(Cc1ccccc1)C[C@@]1(O)CC[C@@]2(C)[C@@H](CC[C@@H]3[C@@H]2CC[C@]2(C)C(=O)CC[C@@H]32)C1", "note": "[Compound 7a, (3α,5α)-3{[benzyl(ethyl)amino]methyl}3-hydroxyandrostan-17-one]", "values": [
      {"measurement": "inhibition at 0.1 µM", "setting": "17β-HSD3 [5]; Table 2 (17β-HSD3), 0.1 μM, read-out: Homo (%) (0.1 μM)", "value": 85, "unit": "%"},
      {"measurement": "inhibition at 1 µM", "setting": "17β-HSD3 [5]; Table 2 (17β-HSD3), 1 μM, read-out: Homo (%) (1 μM)", "value": 90, "unit": "%"},
      {"measurement": "inhibition at 0.01 µM", "setting": "17β-HSD3 [5]; Table 2 (17β-HSD3), [14C]-Δ4-dione 50 nM into [14C]-T, 0.01 μM, read-out: Homo (%) (0.01 μM)", "value": 42, "unit": "%"},
      {"measurement": "inhibition at 0.1 µM", "setting": "17β-HSD3 [6]; HEK293, 1 h, Table 2 (17β-HSD3), 0.1 μM, read-out: Intact cells (%) (0.1 μM)", "value": 86, "unit": "%"},
      {"measurement": "inhibition at 1 µM", "setting": "17β-HSD3 [6]; HEK293, 1 h, Table 2 (17β-HSD3), 1 μM, read-out: Intact cells (%) (1 μM)", "value": 94, "unit": "%"},
      {"measurement": "cell proliferation, % of basal", "setting": "[7]; 0.1 μM", "value": 292, "unit": "%"},
      {"measurement": "cell proliferation, % of basal", "setting": "[7]; 1 μM", "value": 314, "unit": "%"}
    ]},
    {"compound": "CC1CN(S(=O)(=O)c2ccccc2C(F)(F)F)C(C)CN1CC1(O)CCC2(C)C(CCC3C4CCC(=O)C4(C)CCC32)C1", "note": "(stereo not drawn) [Compound 15b, (3α,5α)-3-{[(2ξ,5ξ)-2,5-dimethyl-4-{[2-(trifluoromethyl)phenyl]sulfonyl}piperazin-1-yl]methyl}-3-hydroxyandrostan-17-one]", "values": [
      {"measurement": "Homo (%) (0.01 μM)", "setting": "17β-HSD3 [5]; Table 3, 0.01 μM", "value": 55, "unit": "%"},
      {"measurement": "Homo (%) (0.1 μM)", "setting": "17β-HSD3 [5]; Table 3, 0.1 μM", "value": 92, "unit": "%"},
      {"measurement": "Intact cells (%) (0.1 μM)", "setting": "17β-HSD3 [6]; Table 3, 0.1 μM", "value": 84, "unit": "%"},
      {"measurement": "IC50", "setting": "17β-HSD3 [6]; intact HEK-293 cells overexpressing 17β-HSD3, [14C]-Δ4-dione 50 nM", "value": "6 nM and 5 nM"},
      {"measurement": "fold better inhibitor than reference compound 5", "setting": "17β-HSD3 [6]; ratio of IC50 values", "value": 8, "unit": "fold"},
      {"measurement": "fold better than unlabelled Δ4-dione used as inhibitor", "setting": "17β-HSD3 [6]; ratio of IC50 values", "value": 56, "unit": "fold"},
      {"measurement": "proliferative (androgenic) effect", "setting": "[7]; 0.1 and 1 μM", "value": "did not stimulate the proliferation of AR^+ cells"},
      {"measurement": "Inhibition (%) at 1 μM", "setting": "17β-HSD10 [3]; [14C]-E2 (1 μM) into [14C]-E1, intact HEK-293 cells, 1 μM", "value": 30, "unit": "%"}
    ]}
  ]
}
